From patent publication US8252748B2, “Peptide derived from neurotensin receptor 3 and use thereof in the treatment of psychiatric diseases” (Centre National de la Recherche Scientifique—CNRS, priority 2007, dated 2012)
No end group written: not given here.

Key:
[1] = system: mouse (C57Black/J); test: Forced swimming test (FST); assay type: in vivo
Description: The inventors conducted three types of behavioral experiments that are regarded as classical for determining the antidepressant activity of a substance (Nestler E. J., Gould E., Manji H., Buncan M., Duman R. S., Greshenfeld H. K., Hen, R. et al. “Preclinical models: status of basic research in depression” Biol Psychiatry. 15, 503-528 (2002) (20) and Cryan, J. & Holmes, A. “The ascent of mouse: advances in modeling human depression and anxiety” Nat Rev Drug Discov. 4, 775-790 (2005) (21)). The effects of the propeptide of the present invention were compared with those of the saline solution in which it is dissolved and with those of fluoxetine, one of the most-used antidepressants in clinical practice. The mouse strain used is C57Black/J strain. TREK-1^−/− mice were also measured in these various tests.
The propeptide is dissolved in 0.9% NaCl saline solution to the desired concentrations: 10^−5 M, 10^−6 M, 10^−7 M and […]. Different volumes are injected depending on the technique used: • intracerebroventricular: 5 μl • intravenous: 100 μl • intraperitoneal: 100 μl
For the ICV injections, a Hamilton syringe (Fisher Bioblock) (trademark) of 10 μl is used, and in the case of IV or IP injections, a needle of 0.45×12 mm is used.
A. Forced Swimming Test (FST) (Cryan & Holmes, 2005 (21)) […]

[2] = molecular target: T1, TREK-1 channel (Homo sapiens, UniProt O95069); test: Whole-cell patch clamp of TREK-1 channel activity in transfected COS-7 cells; assay type: cell-based
T1 construct: expressed in transfected cells; host or cells: COS-7 cells (ATCC CRL-1651), DEAE-dextran transfection
T1 sequence (O95069 1-426): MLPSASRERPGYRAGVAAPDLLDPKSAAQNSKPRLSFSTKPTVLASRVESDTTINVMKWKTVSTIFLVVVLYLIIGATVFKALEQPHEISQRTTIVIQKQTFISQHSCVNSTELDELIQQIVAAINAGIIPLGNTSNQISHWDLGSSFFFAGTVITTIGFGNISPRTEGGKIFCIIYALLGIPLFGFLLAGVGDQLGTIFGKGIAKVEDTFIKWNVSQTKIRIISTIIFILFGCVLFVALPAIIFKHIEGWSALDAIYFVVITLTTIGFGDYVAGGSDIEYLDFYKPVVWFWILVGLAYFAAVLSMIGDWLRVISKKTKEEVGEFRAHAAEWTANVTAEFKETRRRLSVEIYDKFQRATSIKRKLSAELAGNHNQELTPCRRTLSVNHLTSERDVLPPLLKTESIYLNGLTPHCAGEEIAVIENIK
Procedure: All the experiments for measuring the effect of the propeptide were conducted on COS-7 cells (cell line derived from kidney fibroblasts of African green monkey Cercopithecus aethiops). These cells are sown at a density of 20 000 cells/dish with diameter of 35 mm, 24 hours before being transfected by the DEAE-dextran method with 1 μg of pIRES-EGFP-TREK-1 plasmid. Measurements of current were taken 48 to 72 hours after transfection.
Culture of the COS-7 cells. The COS-7 cells (ATCC reference: CRL-1651) are cultivated in DMEM medium (Gibco)/10% fetal calf serum (FCS, ICN), at 37° C. in the presence of 5% CO2.
Transfection using DEAE dextran. On day 1, the COS-7 cells are sown at 20 000 cells per 35-mm diameter dish containing 2 ml of culture medium. On day 2, the medium is removed and the cells are covered with 200 μl of PBS (Gibco) containing 1 μg of pIRES-EGFP-TREK-1 plasmid and 100 μg of DEAE-dextran (Sigma) then placed at 37° C./5% CO2. After incubation for 30 minutes, 2 ml of medium DMEM/10% NuSerum/80 μM chloroquin is added. After 3 hours, the medium is replaced with 2 ml of DMEM/10% FCS and the cells are incubated for 48 to 72 hours before being measured by electrophysiological methods.
Electrophysiological measurements: all the measurements are taken at room temperature, i.e. at 21-22° C. The cells that were transfected by the plasmid are detected from the fluorescence emitted by the EGFP after excitation at 480 nm.
The whole-cell patch clamp technique was used for measuring the activity of the TREK-1 channels. The equipment used is the RK 400 patch-clamp amplifier (Axon Instruments, U.S.A.). The patch pipettes with resistance of 1.3 to 8 MΩ are prepared from capillaries of borosilicate glass and are filled with a solution of 155 mM KCl, 3 mM MgCl2, 5 mM EGTA, 10 mM HEPES/KOH pH 7.2.
The cell culture medium is replaced with a solution of 150 mM NaCl, 5 mM KCl, 3 mM MgCl2, 1 mM CaCl2, 10 HEPES/NaOH pH 7.4 containing 10 mM tetraethyl ammonium chloride, 3 mM of 4-aminopyridin. The cells are perfused continuously with this solution. The rest potential of the membrane of the measured cell is fixed at −80 mV.
The variations in voltage are obtained either with a continuous ramp (from −100 to +50 mV) or by potential jumps of 10 mV (from −100 to +40 mV, 1.5 second per jump).
The data obtained were analyzed with the Pclamp software. The currents described in the appended FIG. 2B were obtained at 0 mV, the results expressed are the mean values±standard deviation. The IC50 value was obtained by plotting the experimental data with a sigmoidal function.
The activity of the channel is then measured by the patch-clamp technique in whole-cell configuration as described above.

With “APLPRWSGPIGVSWGLR [propeptide, APLPRWSGPIGVSWGLR]” the “effect on immobility time” value ([1]; ICV, IV or IP injection, 30 min after injection) was “comparable to those produced by fluoxetine”, the “crossing of the blood-brain barrier (BBB)” value ([1]; inferred from activity by intravenous or intraperitoneal as well as central route) was “easily crosses the blood-brain barrier” and the “current density at 0 mV” value ([2]; 10 μM arachidonic acid plus 100 μM of propeptide (130 pA/pF without propeptide)) was 56 pA/pF. The inhibition at 100 µM ([2]; COS-7, read-out: inhibition of channel activity measured at 0 mV) was 25%, the IC50 ([2]; activated by 10 μM arachidonic acid, measured at 0 mV, read-out: half-effect concentration (IC50) of inhibition of TREK-1 channel activity) was 70.7 nM and the “current density at 0 mV” value ([2]; baseline conditions, 100 μM of propeptide (control 31 pA/pF)) was 23 pA/pF. For the same sequence, the “activation of TREK-1 by arachidonic acid” value ([2]; electrophysiology, FIG. 2) was “blocked”.
